Laboratory results: ChEMBL document CHEMBL6109086, “Discovery and biological evaluation of hederagenin derivatives as non-substrate inhibitors of P-glycoprotein-mediated multidrug resistance” (Eur J Med Chem, 2025)
pIC50: −log10 of the molar value. Each block holds one compound with its values, some of them ahead of it. Calls of active or inactive are those of the source. No cut-off for these calls is given here.

How the values were obtained:
[1] = Cytotoxicity against human KBV cells incubated for 72 hrs by MTT assay; type: functional, cell-based
KBV [2] = assay: Anti-tumor activity against human KBV cells xenografted in male BALB/c nude mouse assessed as reduction in tumor volume at 30 mg/kg administered every days for 18 days; type: functional, organism-based; conditions: time 18.0 day
[3] = Cytotoxicity against human KBV cells assessed as paclitaxel induced cytotoxicity by measuring cell survival at 10 uM measured after 72 hrs by MTT assay relative to control; type: functional
[4] = Sensitization of paclitaxel-induced cytotoxicity against human KBV cells assessed as fold change in paclitaxel IC50 at 10 uM incubated for 72 hrs by MTT assay relative to paclitaxel alone; type: functional
KBV [5] = assay: Induction of cell cycle arrest in human KBV cells assessed as accumulation of cells at G2/M phase in presence of paclitaxel incubated for 24 hrs by PI staining based flow cytometry analysis; type: functional; conditions: dose 2.5-10 µM
[6] = Reversal of multi-drug resistance in human KBV cells assessed as paclitaxel induced cytotoxicity by measuring cell survival at 10 uM measured after 72 hrs by MTT assay relative to control; type: functional
[7] = Drug accumulation in human KBV cells expressing p-glycoprotein at 10 uM measured after 4 hrs by UPLC-MS analysis; type: ADME, cell-based
[8] = Sensitization of vincristine -induced cytotoxicity against human KBV cells assessed as fold change in vincristine IC50 at 5 uM incubated for 72 hrs by MTT assay relative to vincristine alone; type: functional
KBV [9] = assay: Induction of Rh123 accumulation in human KBV cells at 10 uM incubated for 150 mins by flow cytometry analysis; type: functional, cell-based
KBV [10] = assay: Induction of cell cycle arrest in human KBV cells assessed as accumulation of cells at G2/M phase at 10 uM incubated for 24 hrs by PI staining based flow cytometry analysis; type: functional
[11] = target: ATP-dependent translocase ABCB1 (Homo sapiens, UniProt P08183); assay: Induction of thermal stabilization of p-glycoprotein in human KBV cells at 50 uM pre-treated with cells for 24 hrs and measured after 2 hrs by CESTA; type: cell-based; conditions: 26 h
KBV [12] = assay: Anti-tumor activity against human KBV cells xenografted in male BALB/c nude mouse assessed as reduction in tumor volume at 10 mg/kg administered once daily for 18 days; type: functional, organism-based; conditions: time 18.0 day
KBV [13] = assay: Induction of apoptosis in human KBV cells in presence of paclitaxel incubated for 24 hrs by PI staining based flow cytometry analysis; type: functional, cell-based; conditions: dose 2.5-10 µM
KBV [14] = assay: Induction of cell cycle arrest in human KBV cells assessed as accumulation of cells at G2/M phase at 10 uM in presence of paclitaxel incubated for 24 hrs by PI staining based flow cytometry analysis; type: functional
[15] = Sensitization of paclitaxel-induced cytotoxicity against human KBV cells assessed as fold change in paclitaxel IC50 at 5 uM incubated for 72 hrs by MTT assay relative to paclitaxel alone; type: functional
[16] = Sensitization of paclitaxel-induced cytotoxicity against human KBV cells assessed as fold change in paclitaxel IC50 at 2.5 uM incubated for 72 hrs by MTT assay relative to paclitaxel alone; type: functional
[17] = Drug accumulation in human KB cells […] at 10 uM measured after 4 hrs by UPLC-MS analysis; type: ADME, cell-based
[18] = Sensitization of vincristine -induced cytotoxicity against human KBV cells assessed as fold change in vincristine IC50 at 2.5 uM incubated for 72 hrs by MTT assay relative to vincristine alone; type: functional
KBv200 = assay: Effect on p-glycoprotein expression level in human KBv200 cells at 2.5 to 10 uM measured after 4 hrs by Western blot analysis; type: functional, cell-based; conditions: dose 2.5-10 µM
[19] = Aqueous solubility of the compound in deionized water measured after 24 hrs by UV-vis spectrophotometric analysis; type: physicochemical; conditions: buffer
[20] = Sensitization of vincristine -induced cytotoxicity against human KBV cells assessed as fold change in vincristine IC50 at 10 uM incubated for 72 hrs by MTT assay relative to vincristine alone; type: functional

Sequence of ATP-dependent translocase ABCB1 (P08183 whole entry): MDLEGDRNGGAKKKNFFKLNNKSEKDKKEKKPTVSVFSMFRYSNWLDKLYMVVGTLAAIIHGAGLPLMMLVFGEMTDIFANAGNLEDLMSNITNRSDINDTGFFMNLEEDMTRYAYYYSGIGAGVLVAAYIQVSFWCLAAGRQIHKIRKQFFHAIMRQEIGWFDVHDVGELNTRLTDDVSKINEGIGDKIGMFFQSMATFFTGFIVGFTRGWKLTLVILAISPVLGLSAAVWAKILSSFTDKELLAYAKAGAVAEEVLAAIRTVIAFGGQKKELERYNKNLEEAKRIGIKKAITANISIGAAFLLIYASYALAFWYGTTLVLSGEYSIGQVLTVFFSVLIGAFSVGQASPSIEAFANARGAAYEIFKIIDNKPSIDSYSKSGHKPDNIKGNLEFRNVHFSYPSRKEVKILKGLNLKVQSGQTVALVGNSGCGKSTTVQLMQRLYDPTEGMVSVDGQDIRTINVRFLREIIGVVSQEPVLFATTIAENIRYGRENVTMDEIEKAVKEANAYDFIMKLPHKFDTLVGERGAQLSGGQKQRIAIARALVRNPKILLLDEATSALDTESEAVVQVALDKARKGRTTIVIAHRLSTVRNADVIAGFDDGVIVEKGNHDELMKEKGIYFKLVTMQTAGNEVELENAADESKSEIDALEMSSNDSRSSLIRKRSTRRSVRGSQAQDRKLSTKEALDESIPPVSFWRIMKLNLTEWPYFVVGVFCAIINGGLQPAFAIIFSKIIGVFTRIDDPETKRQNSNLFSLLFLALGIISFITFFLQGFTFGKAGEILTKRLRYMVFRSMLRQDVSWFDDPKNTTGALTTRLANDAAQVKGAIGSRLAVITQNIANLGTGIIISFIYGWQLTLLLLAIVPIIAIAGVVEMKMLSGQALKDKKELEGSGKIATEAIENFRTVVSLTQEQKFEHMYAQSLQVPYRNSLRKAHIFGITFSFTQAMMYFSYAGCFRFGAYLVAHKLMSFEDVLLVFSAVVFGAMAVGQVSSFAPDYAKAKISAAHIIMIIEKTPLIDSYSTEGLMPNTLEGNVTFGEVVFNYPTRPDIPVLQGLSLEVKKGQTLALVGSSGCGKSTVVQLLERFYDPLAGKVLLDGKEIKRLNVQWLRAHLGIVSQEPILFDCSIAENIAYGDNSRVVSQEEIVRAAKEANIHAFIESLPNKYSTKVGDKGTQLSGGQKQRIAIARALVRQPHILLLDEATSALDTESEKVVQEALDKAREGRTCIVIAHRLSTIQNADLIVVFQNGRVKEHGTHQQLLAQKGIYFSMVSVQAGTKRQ

Structure (SMILES): CC(=O)O[C@H]1C(=O)[C@@]2(C)[C@H]([C@H](OC(=O)c3ccccc3)[C@]3(O)C[C@H](OC(=O)[C@H](O)[C@@H](NC(=O)c4ccccc4)c4ccccc4)C(C)=C1C3(C)C)[C@]1(OC(C)=O)CO[C@@H]1C[C@@H]2O [PACLITAXEL]
- pIC50 [1]: 6.15
- Activity (KBV [2]): inactive
- Activity [3]: 106%

- Drug uptake [7]: Active
- Activity [11]: Active
- Drug uptake [17]: Active
- solubility [19]: soluble
Structure (SMILES): CC1(C)CC[C@]2(C(=O)NCCCC(=O)OCCOCCOCCOCCOCCOCCO)CC[C@]3(C)C(=CC[C@@H]4[C@@]5(C)Cc6nccnc6[C@@](C)(CO)[C@@H]5CC[C@]43C)[C@@H]2C1
- fold change (FC) [4]: 103.51
- Activity (KBV [5]): Dose-dependent-effect
- Activity [6]: 17.01%
- fold change (FC) [8]: 6.09
- Activity (KBV [9]): Active
- Activity (KBV [10]): inactive
- Activity (KBV [12]): inactive
- Activity (KBV [13]): Dose-dependent-effect
- Activity (KBV [14]): Active
- Activity [3]: 86%
- fold change (FC) [15]: 6.12
- fold change (FC) [16]: 2.72
- fold change (FC) [18]: 2.43
- Activity (KBv200): inactive
- fold change (FC) [20]: 14.41

- solubility [19]: soluble
Structure (SMILES): CC1(C)CC[C@]2(C(=O)OCc3ccccc3)CC[C@]3(C)C(=CC[C@@H]4[C@@]5(C)Cc6nccnc6[C@@](C)(CO)[C@@H]5CC[C@]43C)[C@@H]2C1
- Activity [6]: 18.17%

Structure (SMILES): COc1cc2c(cc1OC)CN(CCc1ccc(NC(=O)c3cc(OC)c(OC)cc3NC(=O)c3cnc4ccccc4c3)cc1)CC2
- fold change (FC) [4]: 1523.35
- fold change (FC) [8]: 30.99
- fold change (FC) [15]: 824.4
- fold change (FC) [16]: 391.47
- fold change (FC) [18]: 16.78
- fold change (FC) [20]: 744.78

Structure (SMILES): CC1(C)CC[C@]2(C(=O)OCC(=O)OCC3CCO3)CC[C@]3(C)C(=CC[C@@H]4[C@@]5(C)Cc6nccnc6[C@@](C)(CO)[C@@H]5CC[C@]43C)[C@@H]2C1 (stereo partly drawn)
- Activity [6]: 48.06%
- Activity [3]: 106.82%

Structure (SMILES): CC1(C)CC[C@]2(C(=O)NCC(=O)OCCOCCO)CC[C@]3(C)C(=CC[C@@H]4[C@@]5(C)Cc6nccnc6[C@@](C)(CO)[C@@H]5CC[C@]43C)[C@@H]2C1
- Activity [6]: 84.84%
- Activity [3]: 94.99%

Structure (SMILES): COC(=O)[C@H](CCSC)NC(=O)COC(=O)[C@]12CCC(C)(C)C[C@H]1C1=CC[C@@H]3[C@@]4(C)Cc5nccnc5[C@@](C)(CO)[C@@H]4CC[C@@]3(C)[C@]1(C)CC2
- Activity [6]: 37.17%
- Activity [3]: 79.95%

Structure (SMILES): CC1(C)CC[C@]2(C(=O)NCC(=O)OCCOCCOCCOCCO)CC[C@]3(C)C(=CC[C@@H]4[C@@]5(C)Cc6nccnc6[C@@](C)(CO)[C@@H]5CC[C@]43C)[C@@H]2C1
- Activity [6]: 83.46%
- Activity [3]: 90.96%

Structure (SMILES): CC1(C)CC[C@]2(C(=O)NCCCC(=O)OCCOCCO)CC[C@]3(C)C(=CC[C@@H]4[C@@]5(C)Cc6nccnc6[C@@](C)(CO)[C@@H]5CC[C@]43C)[C@@H]2C1
- Activity [6]: 70.13%
- Activity [3]: 91.43%

Structure (SMILES): CC(C)[C@H](N)C(=O)N[C@H](C(=O)NCCNC(=O)[C@]12CCC(C)(C)C[C@H]1C1=CC[C@@H]3[C@@]4(C)Cc5nccnc5[C@@](C)(CO)[C@@H]4CC[C@@]3(C)[C@]1(C)CC2)C(C)C
- Activity [6]: 89.43%
- Activity [3]: 87.47%

Structure (SMILES): CC1(C)CC[C@]2(C(=O)NCCCC(=O)OCCOCCOCCOCCO)CC[C@]3(C)C(=CC[C@@H]4[C@@]5(C)Cc6nccnc6[C@@](C)(CO)[C@@H]5CC[C@]43C)[C@@H]2C1
- Activity [6]: 28.96%
- Activity [3]: 93.67%

Structure (SMILES): CC(C)[C@H](N)C(=O)NCC(=O)NCCNC(=O)[C@]12CCC(C)(C)C[C@H]1C1=CC[C@@H]3[C@@]4(C)Cc5nccnc5[C@@](C)(CO)[C@@H]4CC[C@@]3(C)[C@]1(C)CC2
- Activity [6]: 27.74%
- Activity [3]: 97.4%

Structure (SMILES): O[C@@H](COc1cccc2ncccc12)CN1CCN([C@@H]2c3ccccc3[C@@H]3[C@H](c4ccccc42)C3(F)F)CC1 [ZOSUQUIDAR]
- fold change (FC) [4]: 449.19
- fold change (FC) [8]: 33.85
- fold change (FC) [15]: 133.98
- fold change (FC) [16]: 45.38
- fold change (FC) [18]: 9.01
- fold change (FC) [20]: 721.86

Structure (SMILES): CC1(C)CC[C@]2(C(=O)NCC(=O)OCCOCCOCCOCCOCCOCCOCCOCCOCCO)CC[C@]3(C)C(=CC[C@@H]4[C@@]5(C)Cc6nccnc6[C@@](C)(CO)[C@@H]5CC[C@]43C)[C@@H]2C1
- Activity [6]: 74.02%
- Activity [3]: 79.04%

Structure (SMILES): CC1(C)CC[C@]2(C(=O)NCCCC(=O)OCCOCCOCCO)CC[C@]3(C)C(=CC[C@@H]4[C@@]5(C)Cc6nccnc6[C@@](C)(CO)[C@@H]5CC[C@]43C)[C@@H]2C1
- Activity [6]: 63.88%
- Activity [3]: 96.02%

Structure (SMILES): CC[C@]1(O)C[C@H]2CN(CCc3c([nH]c4ccccc34)[C@@](C(=O)OC)(c3cc4c(cc3OC)N(C=O)[C@H]3[C@@](O)(C(=O)OC)[C@H](OC(C)=O)[C@]5(CC)C=CCN6CC[C@]43[C@@H]65)C2)C1 [VINCRISTINE]
- pIC50 [1]: 6.33

Structure (SMILES): CC1(C)CC[C@]2(C(=O)NCCNC(=O)CNC(=O)CN)CC[C@]3(C)C(=CC[C@@H]4[C@@]5(C)Cc6nccnc6[C@@](C)(CO)[C@@H]5CC[C@]43C)[C@@H]2C1
- Activity [6]: 87.67%
- Activity [3]: 91.41%

Structure (SMILES): COC(=O)C[C@H](NC(=O)COC(=O)[C@]12CCC(C)(C)C[C@H]1C1=CC[C@@H]3[C@@]4(C)Cc5nccnc5[C@@](C)(CO)[C@@H]4CC[C@@]3(C)[C@]1(C)CC2)C(=O)OC
- Activity [6]: 35.97%
- Activity [3]: 79.2%

Structure (SMILES): CC(C)C[C@H](N)C(=O)NCC(=O)NCCNC(=O)[C@]12CCC(C)(C)C[C@H]1C1=CC[C@@H]3[C@@]4(C)Cc5nccnc5[C@@](C)(CO)[C@@H]4CC[C@@]3(C)[C@]1(C)CC2
- Activity [6]: 96.68%
- Activity [3]: 98.91%
